Laboratory results taken from patent US11180474B2 (BRISTOL-MYERS SQUIBB COMPANY, priority 2016, dated 2021).
Where a name gives a salt, the structure may show the parent alone.

Each compound was assayed against T1, human TLR7 (Homo sapiens, UniProt Q9NYK1) (assay: TLR7 inhibition reporter assay (HEK-Blue cells, SEAP reporter, gardiquimod stimulation)). Details: HEK-Blue cells overexpressing human TLR7, gardiquimod 7.5 μM.
T1 construct: host or cells: HEK-Blue cells
T1 sequence (Q9NYK1 27-1049): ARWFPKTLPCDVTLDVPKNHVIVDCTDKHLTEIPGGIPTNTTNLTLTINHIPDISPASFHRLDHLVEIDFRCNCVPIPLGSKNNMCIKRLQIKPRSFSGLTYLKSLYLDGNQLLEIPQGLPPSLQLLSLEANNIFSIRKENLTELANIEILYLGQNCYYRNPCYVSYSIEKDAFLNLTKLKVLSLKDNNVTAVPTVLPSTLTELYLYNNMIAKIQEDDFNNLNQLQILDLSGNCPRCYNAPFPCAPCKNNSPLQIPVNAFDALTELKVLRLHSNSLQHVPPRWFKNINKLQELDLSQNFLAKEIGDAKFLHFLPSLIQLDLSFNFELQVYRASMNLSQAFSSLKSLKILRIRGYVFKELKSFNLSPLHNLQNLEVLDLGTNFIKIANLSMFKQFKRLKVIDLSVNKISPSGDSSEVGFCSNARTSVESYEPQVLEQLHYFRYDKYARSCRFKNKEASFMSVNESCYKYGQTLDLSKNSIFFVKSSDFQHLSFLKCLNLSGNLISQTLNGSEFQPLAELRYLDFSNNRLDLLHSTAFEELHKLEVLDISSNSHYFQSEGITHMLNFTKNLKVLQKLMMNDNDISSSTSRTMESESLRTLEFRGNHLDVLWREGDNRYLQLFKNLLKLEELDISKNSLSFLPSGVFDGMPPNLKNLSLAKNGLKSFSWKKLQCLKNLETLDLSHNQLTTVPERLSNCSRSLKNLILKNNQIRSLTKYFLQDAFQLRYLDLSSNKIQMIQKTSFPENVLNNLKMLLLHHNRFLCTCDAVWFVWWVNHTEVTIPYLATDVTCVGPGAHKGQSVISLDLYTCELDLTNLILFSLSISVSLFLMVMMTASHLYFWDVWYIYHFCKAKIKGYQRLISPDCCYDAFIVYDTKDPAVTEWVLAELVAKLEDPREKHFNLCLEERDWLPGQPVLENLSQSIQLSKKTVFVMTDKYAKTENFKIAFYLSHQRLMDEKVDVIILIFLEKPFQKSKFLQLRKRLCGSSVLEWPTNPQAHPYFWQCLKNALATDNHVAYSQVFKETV
Type: cell-based
Outline: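 In this cell reporter format, test compounds at 0.05 nM-50 μM final incubate 22 h with seeded cells (TLR7 15000, TLR8 20,000 per well). SEAP read-out by HEK-Blue Detection medium yields % inhibition relative to agonist/DMSO and known-inhibitor wells.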

Compound | IC50 [µM]
COc1ccc(-c2[nH]c3ccc(C4CCN(C5CCN(CC(C)C)CC5)CC4)cc3c2Cl)cc1OC [Example 120, 3-chloro-2-(3,4-dimethoxyphenyl)-5-(1′-isobutyl-[1,4′-bipiperidin]-4-yl)-1H-indole di-trifluoroacetic acid] | 2.74
CCc1c(-c2ccc(OC)c(OC)c2)[nH]c2ccc(C3CCN(C4CCN(Cc5cc6ccccc6n5C)CC4)CC3)cc12 [Example 137, 2-(3,4-dimethoxyphenyl)-3-ethyl-5-(1′-((1-methyl-1H-indol-2-yl)methyl)-[1,4′-bipiperidin]-4-yl)-1H-indole] | 4.69
CNCCN1CCC(c2cc3c(C(C)C)c(-c4ccc(OC)c(OC)c4)[nH]c3cc2C)CC1 [Example 207, 2-(4-(2-(3,4-dimethoxyphenyl)-3-isopropyl-6-methyl-1H-indol-5-yl)piperidin-1-yl)-N-methylethan-1-amine] | 7.3
CCc1c(-c2ccc(OC)c(OC)c2)[nH]c2ccc(C3CCN(C4CCN(Cc5c(C)noc5C)CC4)CC3)cc12 [Example 138, 4-((4-(2-(3,4-dimethoxyphenyl)-3-ethyl-1H-indol-5-yl)-[1,4′-bipiperidin]-1′-yl)methyl)-3,5-dimethylisoxazole] | 3.51
CCc1c(-c2ccc(OC)c(OC)c2)[nH]c2ccc(C3CCN(C(=O)CN4CCCC(C(=O)N(CC)CC)C4)CC3)cc12 (single isomer, unassigned) [Example 178, 1-(2-(4-(2-(3,4-dimethoxyphenyl)-3-ethyl-1H-indol-5-yl)piperidin-1-yl)-2-oxoethyl)-N,N-diethylpiperidine-3-carboxamide] | 0.48

More lines, now with the values ahead:

IC50 [µM] | Compound
0.473 | CCc1c(-c2ccc(OC)c(OC)c2)[nH]c2ccc(C3CCN(C4CCN(Cc5cc(C)n(C)n5)CC4)CC3)cc12 [Example 144, 2-(3,4-dimethoxyphenyl)-5-(1′-((1,5-dimethyl-1H-pyrazol-3-yl)methyl)-[1,4′-bipiperidin]-4-yl)-3-ethyl-1H-indole]
0.073 | COc1ccc(-c2[nH]c3ccc(C4CCNCC4)cc3c2C(C)C)cc1OC [Example 194, 2-(3,4-dimethoxyphenyl)-3-isopropyl-5-(piperidin-4-yl)-1H-indole hydrochloride]
0.167 | CCc1c(-c2ccc(OC)c(OC)c2)[nH]c2ccc(C3CCN(C(=O)C4(C)CCNCC4)CC3)cc12 [Example 187, (4-(2-(3,4-dimethoxyphenyl)-3-ethyl-1H-indol-5-yl)piperidin-1-yl)(4-methylpiperidin-4-yl)methanone]
0.021 | COc1ccc(-c2[nH]c3ccc(C4CCN(C(=O)CNCC#N)CC4)cc3c2C(C)C)cc1OC [Example 214, 2-((2-(4-(2-(3,4-dimethoxyphenyl)-3-isopropyl-1H-indol-5-yl)piperidin-1-yl)-2-oxoethyl)amino) acetonitrile]
0.28 | CCc1c(-c2ccc(OC)c(OC)c2)[nH]c2ccc(C3CCN(C(=O)CN4CCCC(C(=O)N(CC)CC)C4)CC3)cc12 (single isomer, unassigned) [Example 179, 1-(2-(4-(2-(3,4-dimethoxyphenyl)-3-ethyl-1H-indol-5-yl)piperidin-1-yl)-2-oxoethyl)-N,N-diethylpiperidine-3-carboxamide]
